{"source": "patent US20080312255A1", "about": "(ASTRAZENECA AB, priority 2007, published 2008)"}
{"biological_target": "S. aureus GyrB ATPase (Staphylococcus aureus, UniProt P0A0K8)", "sequence (P0AES4 whole entry)": "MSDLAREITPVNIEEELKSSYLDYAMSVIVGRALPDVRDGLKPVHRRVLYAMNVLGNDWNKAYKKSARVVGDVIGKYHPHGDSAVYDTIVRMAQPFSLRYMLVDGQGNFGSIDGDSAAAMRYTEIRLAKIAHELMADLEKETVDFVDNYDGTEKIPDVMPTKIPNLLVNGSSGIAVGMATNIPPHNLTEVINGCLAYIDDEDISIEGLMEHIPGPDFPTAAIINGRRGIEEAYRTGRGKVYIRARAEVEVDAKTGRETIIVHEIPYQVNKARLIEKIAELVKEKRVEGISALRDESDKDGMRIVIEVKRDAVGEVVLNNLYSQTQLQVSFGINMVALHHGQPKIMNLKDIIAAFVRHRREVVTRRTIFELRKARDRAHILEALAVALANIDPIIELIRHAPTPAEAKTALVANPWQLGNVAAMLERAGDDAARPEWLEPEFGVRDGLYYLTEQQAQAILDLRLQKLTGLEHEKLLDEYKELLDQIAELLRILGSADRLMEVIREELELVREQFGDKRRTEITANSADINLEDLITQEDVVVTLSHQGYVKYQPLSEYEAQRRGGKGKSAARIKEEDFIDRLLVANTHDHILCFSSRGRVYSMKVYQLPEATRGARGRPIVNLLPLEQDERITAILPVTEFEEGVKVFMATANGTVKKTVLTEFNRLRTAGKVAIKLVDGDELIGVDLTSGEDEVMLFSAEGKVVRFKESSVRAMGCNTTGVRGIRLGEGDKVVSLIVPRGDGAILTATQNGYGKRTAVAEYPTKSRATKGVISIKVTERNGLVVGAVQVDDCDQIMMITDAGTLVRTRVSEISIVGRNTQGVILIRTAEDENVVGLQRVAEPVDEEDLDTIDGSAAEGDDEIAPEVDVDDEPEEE", "sequence (P0A0K8 whole entry)": "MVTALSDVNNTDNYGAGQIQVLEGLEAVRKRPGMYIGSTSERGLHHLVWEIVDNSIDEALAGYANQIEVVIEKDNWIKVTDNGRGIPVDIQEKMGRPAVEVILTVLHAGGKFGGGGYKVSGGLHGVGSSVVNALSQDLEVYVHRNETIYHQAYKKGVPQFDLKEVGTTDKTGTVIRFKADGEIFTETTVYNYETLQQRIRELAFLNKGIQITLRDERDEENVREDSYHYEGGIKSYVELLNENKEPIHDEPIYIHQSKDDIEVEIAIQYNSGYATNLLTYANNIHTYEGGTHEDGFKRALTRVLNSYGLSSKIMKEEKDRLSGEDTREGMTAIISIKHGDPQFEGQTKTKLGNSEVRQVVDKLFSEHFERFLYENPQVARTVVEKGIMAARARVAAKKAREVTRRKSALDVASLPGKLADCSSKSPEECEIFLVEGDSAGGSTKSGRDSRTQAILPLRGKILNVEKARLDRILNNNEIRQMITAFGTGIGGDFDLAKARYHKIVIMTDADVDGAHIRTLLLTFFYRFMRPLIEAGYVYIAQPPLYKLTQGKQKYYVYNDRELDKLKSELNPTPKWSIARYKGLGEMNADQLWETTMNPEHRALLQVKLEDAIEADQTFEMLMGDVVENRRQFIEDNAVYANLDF", "assay": "S. aureus GyrB ATPase inhibition (ammonium molybdate/malachite green phosphate detection)", "assay_type": "biochemical", "settings": "compound concentration of 1 μM", "procedure": "S. aureus GyrB ATPase Inhibition Activity: Compounds may be tested for inhibition of S. aureus GyrB ATPase activity using an ammonium molybdate/malachite green-based phosphate detection assay (Lanzetta, P. A., L. J. Alvarez, P. S. Reinach, and O. A. Candia, 1979, 100: 95-97). Assays can be performed in multiwell plates in 30 μl reactions containing: 50 mM Hepes buffer pH 7.5, 75 mM ammonium acetate, 8.0 mM magnesium chloride, 0.5 mM ethylenediaminetetraacetic acid, 5% glycerol, 1.0 mM 1,4-Dithio-DL-threitol, 200 nM bovine serum albumin, 1.0 μg/ml sheared salmon sperm DNA, 250 pM E. coli GyrA, 250 pM S. aureus GyrB, 250 μM ATP, and compound in dimethylsulfoxide. Reactions can be quenched with […] of ammonium molybdate/malachite green detection reagent containing 1.2 mM malachite green hydrochloride, 8.5 mM ammonium molybdate tetrahydrate, and 1 M hydrochloric acid. Plates can be read in an absorbance plate reader at 650 nm and percent inhibition values can be calculated using dimethylsulfoxide (2%)-containing reactions as 0% inhibition and EDTA-containing ([…]) reactions as 100% inhibition controls. An IC50 measurement of compound potency for each compound can be determined from reactions performed in the presence of 10 different compound concentrations.\nCompounds of the invention were tested in an assay substantially similar to the assay described above for measuring the inhibition of S. aureus GyrB ATPase. Percent inhibition of S. aureus GyrB ATPase at a compound concentration of 1 μM (unless otherwise noted) is disclosed in the following table: […]", "units": {"inhibition at 1 µM": "%"}}
{"smiles": "CO[C@H]1CN(c2nc(-c3ncccn3)c(C(=O)O)s2)CC[C@H]1NC(=O)c1[nH]c(C)c(Cl)c1Cl", "note": "[Example 1, 2-((3S,4R)-4-{[(3,4-Dichloro-5-methyl-1H-pyrrol-2-yl)carbonyl]amino}-3-methoxypiperidin-1-yl)-4-pyrimidin-2-yl-1,3-thiazole-5-carboxylic acid]", "inhibition at 1 µM": 99.2}
{"smiles": "CO[C@H]1CN(c2nc(-c3ccncn3)c(C(=O)O)s2)CC[C@H]1NC(=O)c1[nH]c(C)c(Cl)c1Cl", "note": "[Example 2, 2-((3S,4R)-4-{[(3,4-Dichloro-5-methyl-1H-pyrrol-2-yl)carbonyl]amino}-3-methoxypiperidin-1-yl)-4-pyrimidin-4-yl-1,3-thiazole-5-carboxylic acid]", "inhibition at 1 µM": 101}
{"smiles": "CO[C@H]1CN(c2nc(-c3nccs3)c(C(=O)O)s2)CC[C@H]1NC(=O)c1[nH]c(C)c(Cl)c1Cl", "note": "[Example 3, 2′-((3S,4R)-4-{[(3,4-Dichloro-5-methyl-1H-pyrrol-2-yl)carbonyl]amino}-3-methoxypiperidin-1-yl)-2,4′-bi-1,3-thiazole-5′-carboxylic acid]", "inhibition at 1 µM": 98.6}
{"smiles": "Cc1[nH]c(C(=O)N[C@@H]2CCN(c3nc(-c4ncccn4)c(C(=O)O)s3)C[C@@H]2F)c(Cl)c1Cl", "note": "[Example 4, 2-((3S,4R)-4-{[(3,4-Dichloro-5-methyl-1H-pyrrol-2-yl)carbonyl]amino}-3-fluoropiperidin-1-yl)-4-pyrimidin-2-yl-1,3-thiazole-5-carboxylic acid]", "inhibition at 1 µM": 97.7}
{"smiles": "Cc1[nH]c(C(=O)N[C@@H]2CCN(c3nc(-c4ccncn4)c(C(=O)O)s3)C[C@@H]2F)c(Cl)c1Cl", "note": "[Example 5, 2-((3S,4R)-4-{[(3,4-Dichloro-5-methyl-1H-pyrrol-2-yl)carbonyl]amino}-3-fluoropiperidin-1-yl)-4-pyrimidin-4-yl-1,3-thiazole-5-carboxylic acid]", "inhibition at 1 µM": 99.4}
{"smiles": "Cc1[nH]c(C(=O)N[C@@H]2CCN(c3nc(-c4nccs4)c(C(=O)O)s3)C[C@@H]2F)c(Cl)c1Cl", "note": "[Example 6, 2′-((3S,4R)-4-{[(3,4-Dichloro-5-methyl-1H-pyrrol-2-yl)carbonyl]amino}-3-fluoropiperidin-1-yl)-2,4′-bi-1,3-thiazole-5′-carboxylic acid]", "inhibition at 1 µM": 99.9}
{"smiles": "CO[C@H]1CN(c2nc(-c3ccccn3)c(C(=O)O)s2)CC[C@H]1NC(=O)c1[nH]c(C)c(Cl)c1Cl", "note": "[Example 7, 2-((3S,4R)-4-{[(3,4-Dichloro-5-methyl-1H-pyrrol-2-yl)carbonyl]amino}-3-methoxypiperidin-1-yl)-4-pyridin-2-yl-1,3-thiazole-5-carboxylic acid]", "inhibition at 1 µM": 97.1}
{"smiles": "Cc1[nH]c(C(=O)N[C@@H]2CCN(c3nc(-c4ccccn4)c(C(=O)O)s3)C[C@@H]2F)c(Cl)c1Cl", "note": "[Example 8, 2-((3S,4R)-4-{[(3,4-Dichloro-5-methyl-1H-pyrrol-2-yl)carbonyl]amino}-3-fluoropiperidin-1-yl)-4-pyridin-2-yl-1,3-thiazole-5-carboxylic acid]", "inhibition at 1 µM": 106}
{"smiles": "CO[C@H]1CN(c2nc(-c3cc(N(C)C)nc(N(C)C)n3)c(C(=O)O)s2)CC[C@H]1NC(=O)c1[nH]c(C)c(Cl)c1Cl", "note": "[Example 9, 4-[2,6-Bis(dimethylamino)pyrimidin-4-yl]-2-((3S,4R)-4-{[(3,4-dichloro-5-methyl-1H-pyrrol-2-yl)carbonyl]amino}-3-methoxypiperidin-1-yl)-1,3-thiazole-5-carboxylic acid]", "inhibition at 1 µM": 102}
{"smiles": "Cc1[nH]c(C(=O)N[C@@H]2CCN(c3nc(-c4cc(N(C)C)nc(N(C)C)n4)c(C(=O)O)s3)C[C@@H]2F)c(Cl)c1Cl", "note": "[Example 10, 4-[2,6-Bis(dimethylamino)pyrimidin-4-yl]-2-((3S,4R)-4-{[(3,4-dichloro-5-methyl-1H-pyrrol-2-yl)carbonyl]amino}-3-fluoropiperidin-1-yl)-1,3-thiazole-5-carboxylic acid]", "inhibition at 1 µM": 101}
{"smiles": "CO[C@H]1CN(c2nc(-c3cnccn3)c(C(=O)O)s2)CC[C@H]1NC(=O)c1[nH]c(C)c(Cl)c1Cl", "note": "[Example 12, 2-((3S,4R)-4-{[(3,4-Dichloro-5-methyl-1H-pyrrol-2-yl)carbonyl]amino}-3-methoxypiperidin-1-yl)-4-pyrazin-2-yl-1,3-thiazole-5-carboxylic acid]", "inhibition at 1 µM": 105}
{"smiles": "CO[C@H]1CN(c2nc(-c3nc4ccccc4s3)c(C(=O)O)s2)CC[C@H]1NC(=O)c1[nH]c(C)c(Cl)c1Cl", "note": "[Example 13, 4-(1,3-Benzothiazol-2-yl)-2-((3S,4R)-4-{[(3,4-dichloro-5-methyl-1H-pyrrol-2-yl)carbonyl]amino}-3-methoxypiperidin-1-yl)-1,3-thiazole-5-carboxylic acid]", "inhibition at 1 µM": 101}
{"smiles": "Cc1[nH]c(C(=O)N[C@@H]2CCN(c3nc(-c4cnccn4)c(C(=O)O)s3)C[C@@H]2F)c(Cl)c1Cl", "note": "[Example 14]", "inhibition at 1 µM": 98.3}
{"smiles": "Cc1[nH]c(C(=O)N[C@@H]2CCN(c3nc(-c4nc5ccccc5s4)c(C(=O)O)s3)C[C@@H]2F)c(Cl)c1Cl", "note": "[Example 15, 4-(1,3-Benzothiazol-2-yl)-2-((3S,4R)-4-{[(3,4-dichloro-5-methyl-1H-pyrrol-2-yl)carbonyl]amino}-3-fluoropiperidin-1-yl)-1,3-thiazole-5-carboxylic acid]", "inhibition at 1 µM": 101}
{"smiles": "CO[C@H]1CN(c2nc(-c3nccn3COCC[Si](C)(C)C)c(C(=O)O)s2)CC[C@H]1NC(=O)c1[nH]c(C)c(Cl)c1Cl", "note": "[Example 16, 2-((3S,4R)-4-{[(3,4-Dichloro-5-methyl-1H-pyrrol-2-yl)carbonyl]amino}-3-methoxypiperidin-1-yl)-4-(1-{[2-(trimethylsilyl)ethoxy]methyl}-1H-imidazol-2-yl)-1,3-thiazole-5-carboxylic acid]", "inhibition at 1 µM": 100}
{"smiles": "COCn1ccnc1-c1nc(N2CC[C@@H](NC(=O)c3[nH]c(C)c(Cl)c3Cl)[C@@H](OC)C2)sc1C(=O)O", "note": "[Example 17, 2-((3S,4R)-4-{[(3,4-Dichloro-5-methyl-1H-pyrrol-2-yl)carbonyl]amino}-3-methoxypiperidin-1-yl)-4-[1-(methoxymethyl)-1H-imidazol-2-yl]-1,3-thiazole-5-carboxylic acid]", "inhibition at 1 µM": 97.7}
{"smiles": "CO[C@H]1CN(c2nc(-c3ncc[nH]3)c(C(=O)O)s2)CC[C@H]1NC(=O)c1[nH]c(C)c(Cl)c1Cl", "note": "[Example 18, 2-((3S,4R)-4-{[(3,4-Dichloro-5-methyl-1H-pyrrol-2-yl)carbonyl]amino}-3-methoxypiperidin-1-yl)-4-(1H-imidazol-2-yl)-1,3-thiazole-5-carboxylic acid]", "inhibition at 1 µM": 101}
{"smiles": "COCn1ccnc1-c1nc(N2CC[C@@H](NC(=O)c3[nH]c(C)c(Cl)c3Cl)[C@@H](F)C2)sc1C(=O)O", "note": "[Example 19, 2-((3S,4R)-4-{[(3,4-Dichloro-5-methyl-1H-pyrrol-2-yl)carbonyl]amino}-3-fluoropiperidin-1-yl)-4-[1-(methoxymethyl)-1H-imidazol-2-yl]-1,3-thiazole-5-carboxylic acid]", "inhibition at 1 µM": 102}
{"smiles": "Cc1[nH]c(C(=O)N[C@@H]2CCN(c3nc(-c4ncc[nH]4)c(C(=O)O)s3)C[C@@H]2F)c(Cl)c1Cl", "note": "[Example 20, 2-((3S,4R)-4-{[(3,4-Dichloro-5-methyl-1H-pyrrol-2-yl)carbonyl]amino}-3-fluoropiperidin-1-yl)-4-(1H-imidazol-2-yl)-1,3-thiazole-5-carboxylic acid]", "inhibition at 1 µM": 98.6}
